This note sets out measurements from US20240067673A1, “MODIFIED NUCLEOSIDE OR NUCLEOTIDE” (BIG SHENZHEN, priority 2020, published 2024).

SMILES strings stand for the structures.

The test system of this experiment is DNA nanospheres prepared by using E. coli sequencing library. In words: Evaluation of blocking effect (incorporation and cleavage efficiency) on MGISEQ2000 sequencer. The experiment is classed as biochemical. The conditions noted are these: for Cleavage efficiency (EC): ratio of Cleavage efficiency values for testing nucleotide and comparative nucleotide, thpp reagent, 65° C. 1 min, dTTP analogue; for Incorporation efficiency (EI): ratio of Incorporation efficiency values for testing nucleotide and comparative nucleotide (standard cold dNTP), dTTP analogue as cold dNTP. As to the method: 1. Evaluation of Blocking Effect
For each test, only one of the nucleotide analogues cold dNTP of the invention (dTTP, dATP, dCTP, and dGTP) was used. For ease of presentation, only testing results for dTTP were provided in the following table 1 for each kind of 3′-OH modification.
Sequencing was conducted according to the operation protocol of MGISEQ2000 sequencer, using the above nucleotide substrates and MGISEQ-2000RS high-throughput sequencing kit (FCL SE50).
(1) Preparing DNA nanospheres by using E. coli sequencing library;
(2) Loading DNA nanospheres onto the MGISEQ2000 sequencing chip;
(3) Amounting the loaded sequencing chip onto the MGISEQ2000 sequencer and set the sequencing process;
(4) Performing Test Round 1: incorporating standard hot dNTP, taking photos for recording signal value, and then cleaving the blocking group with thpp reagent, 65° C. 1 min.
(5) Performing Test Round 2: incorporating standard cold dNTP, then incorporating standard hot dNTP, taking photos for recording signal value, and then cleaving blocking group with thpp reagent, 65° C. 1 min.
(6) Performing Test Round 3: incorporating standard hot dNTP, taking photos for recording signal value, and then cleaving blocking group with thpp reagent, 65° C. 1 min.
(7) Performing Test Round 4: incorporating nucleotide analogues cold dNTP of the invention (only one kind of cold dNTP incorporated for each test), then incorporating standard hot dNTP, taking photos for recording signal value, and then cleaving blocking group with thpp reagent, 65° C. 1 min.
(8) Performing Test Round 5: incorporating standard hot dNTP, taking photos for recording signal value.
(9) Evaluating Incorporation efficiency and Cleavage efficiency.
Equation for Calculating Incorporation Efficiency: […]
wherein: • EI (Incorporation efficiency) is the ratio of Incorporation efficiency values for testing nucleotide and comparative nucleotide; • C1 is signal value of Test Round 1; • C2 is signal value of Test Round 2; • C3 is signal value of Test Round 3; • C4 is signal value of Test Round 4;
Equation for Calculating Cleavage Efficiency: […]
wherein: • Ec (Cleavage efficiency) is the ratio of Cleavage efficiency values for testing nucleotide and comparative nucleotide; • EI is the ratio of Incorporation efficiency values for testing nucleotide and comparative nucleotide; • C3 is signal value of Test Round 3; • C5 is signal value of Test Round 5; • CGT is the signals of base C, base G and base T in Test Round 3.

Consider `Cc1cn([C@H]2CC(OC(=O)CCCN=[N+]=[N-])[C@@H](COP(=O)(O)OP(=O)(O)OP(=O)(O)O)O2)c(=O)[nH]c1=O` (stereo partly shown), for which the “Cleavage efficiency (EC)” value came to 36% and the “Incorporation efficiency (EI)” value is 95%.

As to `Cc1cn([C@H]2CC(OC(=O)c3occc3CN=[N+]=[N-])[C@@H](COP(=O)(O)OP(=O)(O)OP(=O)(O)O)O2)c(=O)[nH]c1=O` (stereo partly shown), the “Cleavage efficiency (EC)” value worked out at 5% and the “Incorporation efficiency (EI)” value was determined as 101%.

For the molecule `Cc1cn([C@H]2CC(OC(=O)c3ccccc3C(C)N=[N+]=[N-])[C@@H](COP(=O)(O)OP(=O)(O)OP(=O)(O)O)O2)c(=O)[nH]c1=O` (stereo partly shown), the “Cleavage efficiency (EC)” value amounted to 105% and the “Incorporation efficiency (EI)” value is given as 101%.

Turning to `CCSSC(C)c1ccccc1C(=O)OC1C[C@H](n2cc(C)c(=O)[nH]c2=O)O[C@@H]1COP(=O)(O)OP(=O)(O)OP(=O)(O)O` (stereo partly shown), the “Cleavage efficiency (EC)” value is recorded as 110% and the “Incorporation efficiency (EI)” value stood at 100%.

Take `Cc1cn([C@H]2CC(OC(=O)c3cccnc3C(C)N=[N+]=[N-])[C@@H](COP(=O)(O)OP(=O)(O)OP(=O)(O)O)O2)c(=O)[nH]c1=O` (stereo partly shown): the “Cleavage efficiency (EC)” value worked out at 115% and the “Incorporation efficiency (EI)” value is 100%.

`Cc1cn([C@H]2CC(OC(=O)c3ccc([N+](=O)[O-])cc3CN=[N+]=[N-])[C@@H](COP(=O)(O)OP(=O)(O)OP(=O)(O)O)O2)c(=O)[nH]c1=O` (stereo partly shown): the “Cleavage efficiency (EC)” value was found to be 112% and the “Incorporation efficiency (EI)” value is listed as 101%.

In the case of `Cc1cn([C@H]2CC(OC(=O)c3ccccc3CN=[N+]=[N-])[C@@H](COP(=O)(O)OP(=O)(O)OP(=O)(O)O)O2)c(=O)[nH]c1=O` (stereo partly shown), the “Cleavage efficiency (EC)” value is listed as 91% and the “Incorporation efficiency (EI)” value is given as 98%.

In the case of `COc1ccc(C(=O)OC2C[C@H](n3cc(C)c(=O)[nH]c3=O)O[C@@H]2COP(=O)(O)OP(=O)(O)OP(=O)(O)O)c(C(C)N=[N+]=[N-])c1` (stereo partly shown), the “Cleavage efficiency (EC)” value came out at 98% and the “Incorporation efficiency (EI)” value is on record as 101%.

`Cc1cn([C@H]2CC(OC(=O)c3cccnc3C(C)(C)N=[N+]=[N-])[C@@H](COP(=O)(O)OP(=O)(O)OP(=O)(O)O)O2)c(=O)[nH]c1=O` (stereo partly shown): the “Cleavage efficiency (EC)” value was 110% and the “Incorporation efficiency (EI)” value amounted to 95%.

As to `Cc1cn([C@H]2CC(OC(=O)Cc3ccccc3CN=[N+]=[N-])[C@@H](COP(=O)(O)OP(=O)(O)OP(=O)(O)O)O2)c(=O)[nH]c1=O` (stereo partly shown), the “Cleavage efficiency (EC)” value was 89% and the “Incorporation efficiency (EI)” value came to 95%.

For the molecule `Cc1cn([C@H]2CC(OC(=O)Cc3ccccc3C(C)N=[N+]=[N-])[C@@H](COP(=O)(O)OP(=O)(O)OP(=O)(O)O)O2)c(=O)[nH]c1=O` (stereo partly shown), the “Cleavage efficiency (EC)” value was found to be 91% and the “Incorporation efficiency (EI)” value was 98%.

On to `Cc1cn([C@H]2CC(OC(=O)c3ccccc3CCN=[N+]=[N-])[C@@H](COP(=O)(O)OP(=O)(O)OP(=O)(O)O)O2)c(=O)[nH]c1=O` (stereo partly shown), for which the “Cleavage efficiency (EC)” value was “Incorporation efficiency (EI) 100% Cleavage efficiency (EC) 100%” and the “Incorporation efficiency (EI)” value is recorded as “Incorporation efficiency (EI) 100% Cleavage efficiency (EC) 100%”.

On to `CSSC(C)c1ccccc1C(=O)OC1C[C@H](n2cc(C)c(=O)[nH]c2=O)O[C@@H]1COP(=O)(O)OP(=O)(O)OP(=O)(O)O` (stereo partly shown), for which the “Cleavage efficiency (EC)” value worked out at 111% and the “Incorporation efficiency (EI)” value is listed as 100%.

`Cc1cn([C@H]2CC(OC(=O)c3ccccc3C(C)SSCC(C)C)[C@@H](COP(=O)(O)OP(=O)(O)OP(=O)(O)O)O2)c(=O)[nH]c1=O` (stereo partly shown): the “Cleavage efficiency (EC)” value was 98% and the “Incorporation efficiency (EI)” value stood at 90%.

In the case of `Cc1cn([C@H]2CC(OC(=O)c3ccccc3C(C)SSC(C)C)[C@@H](COP(=O)(O)OP(=O)(O)OP(=O)(O)O)O2)c(=O)[nH]c1=O` (stereo partly shown), the “Cleavage efficiency (EC)” value amounted to 103% and the “Incorporation efficiency (EI)” value turned out to be 95%.

Consider `CSSC(C)c1cc(NC(C)=O)ccc1C(=O)OC1C[C@H](n2cc(C)c(=O)[nH]c2=O)O[C@@H]1COP(=O)(O)OP(=O)(O)OP(=O)(O)O` (stereo partly shown), for which the “Cleavage efficiency (EC)” value is reported as 98% and the “Incorporation efficiency (EI)” value is reported as 100%.

For the molecule `COc1ccc(C(=O)OC2C[C@H](n3ccc(N)nc3=O)O[C@@H]2COP(=O)(O)OP(=O)(O)OP(=O)(O)O)c(C(C)SSC)c1` (stereo partly shown), the “Cleavage efficiency (EC)” value worked out at 101% and the “Incorporation efficiency (EI)” value is on record as 104%.
